From ChEMBL document CHEMBL4828722, “The synthesis and bioactivity of pyrrolo[2,3-d]pyrimidine derivatives as tyrosine kinase inhibitors for NSCLC cells with EGFR mutations” (Eur J Med Chem, 2021)
Activity calls are given as the source filed them. No cut-off for these calls is given here.

How the values were obtained:
[1] = biological target: Epidermal growth factor receptor (Homo sapiens, UniProt P00533, L858R/T790M); assay: Inhibition of […] EGFR L858R/T790M mutant (unknown origin) pretreated with substrate for 10 mins followed by ATP addition measured after 60 mins by mobility shift assay
[2] = biological target: Epidermal growth factor receptor (Homo sapiens, UniProt P00533, C797S); assay: Inhibition of […] EGFR C797S mutant (unknown origin) pretreated with substrate for 10 mins followed by ATP addition measured after 60 mins by mobility shift assay
[3] = system: Epidermal growth factor receptor (Homo sapiens), P00533 [UNDEFINED MUTATION]; assay: Inhibition of […] EGFR Del E746/A750 mutant (unknown origin) at 2 nM pretreated with substrate for 10 mins followed by ATP addition measured after 60 mins by mobility shift assay relative to control
[4] = biological target: T1, Epidermal growth factor receptor (Homo sapiens, UniProt P00533); assay: Inhibition of […] EGFR phosphorylation at Tyr992 residue in human NCI-H1975 cells at 0.1 to 5 uM incubated for 2 hrs by immunoblotting analysis; type: cell-based; conditions: dose 0.1-5 µM
T1 sequence (P00533 whole entry): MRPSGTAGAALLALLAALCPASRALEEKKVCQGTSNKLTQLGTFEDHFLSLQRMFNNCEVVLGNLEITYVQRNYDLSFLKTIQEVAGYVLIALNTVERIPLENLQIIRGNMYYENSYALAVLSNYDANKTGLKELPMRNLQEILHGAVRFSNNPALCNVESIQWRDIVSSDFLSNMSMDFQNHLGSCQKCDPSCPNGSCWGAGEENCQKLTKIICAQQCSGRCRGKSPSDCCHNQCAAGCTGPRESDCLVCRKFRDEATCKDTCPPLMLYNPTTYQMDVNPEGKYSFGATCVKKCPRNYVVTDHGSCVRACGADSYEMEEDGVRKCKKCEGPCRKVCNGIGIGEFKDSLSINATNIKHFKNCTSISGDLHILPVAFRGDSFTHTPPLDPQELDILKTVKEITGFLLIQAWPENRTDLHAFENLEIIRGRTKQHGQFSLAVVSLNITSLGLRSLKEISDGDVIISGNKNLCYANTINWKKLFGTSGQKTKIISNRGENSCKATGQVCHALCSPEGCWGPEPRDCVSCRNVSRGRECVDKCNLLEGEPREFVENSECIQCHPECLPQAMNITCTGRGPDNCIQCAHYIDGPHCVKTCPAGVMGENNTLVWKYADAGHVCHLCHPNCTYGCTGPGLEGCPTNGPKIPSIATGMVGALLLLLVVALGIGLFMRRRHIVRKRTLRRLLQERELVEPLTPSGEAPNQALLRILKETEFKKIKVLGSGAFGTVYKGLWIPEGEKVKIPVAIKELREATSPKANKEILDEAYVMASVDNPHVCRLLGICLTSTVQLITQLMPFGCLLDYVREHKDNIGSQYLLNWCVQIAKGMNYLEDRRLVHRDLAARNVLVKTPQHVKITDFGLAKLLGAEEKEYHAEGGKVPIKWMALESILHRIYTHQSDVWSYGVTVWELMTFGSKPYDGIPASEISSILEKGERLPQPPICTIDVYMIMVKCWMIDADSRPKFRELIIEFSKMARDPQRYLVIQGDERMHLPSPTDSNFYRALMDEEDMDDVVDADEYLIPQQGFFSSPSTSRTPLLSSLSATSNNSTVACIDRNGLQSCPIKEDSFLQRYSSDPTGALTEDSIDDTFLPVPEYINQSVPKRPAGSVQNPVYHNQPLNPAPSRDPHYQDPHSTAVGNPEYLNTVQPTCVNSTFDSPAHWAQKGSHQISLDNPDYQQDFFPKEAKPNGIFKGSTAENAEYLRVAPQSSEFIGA

[5] = system: Epidermal growth factor receptor (Homo sapiens), P00533 [C797S]; assay: Inhibition of […] EGFR C797S mutant (unknown origin) at 2 nM pretreated with substrate for 10 mins followed by ATP addition measured after 60 mins by mobility shift assay relative to control
Chain of Epidermal growth factor receptor (Homo sapiens), P00533 [C797S] (P00533 whole entry C797S): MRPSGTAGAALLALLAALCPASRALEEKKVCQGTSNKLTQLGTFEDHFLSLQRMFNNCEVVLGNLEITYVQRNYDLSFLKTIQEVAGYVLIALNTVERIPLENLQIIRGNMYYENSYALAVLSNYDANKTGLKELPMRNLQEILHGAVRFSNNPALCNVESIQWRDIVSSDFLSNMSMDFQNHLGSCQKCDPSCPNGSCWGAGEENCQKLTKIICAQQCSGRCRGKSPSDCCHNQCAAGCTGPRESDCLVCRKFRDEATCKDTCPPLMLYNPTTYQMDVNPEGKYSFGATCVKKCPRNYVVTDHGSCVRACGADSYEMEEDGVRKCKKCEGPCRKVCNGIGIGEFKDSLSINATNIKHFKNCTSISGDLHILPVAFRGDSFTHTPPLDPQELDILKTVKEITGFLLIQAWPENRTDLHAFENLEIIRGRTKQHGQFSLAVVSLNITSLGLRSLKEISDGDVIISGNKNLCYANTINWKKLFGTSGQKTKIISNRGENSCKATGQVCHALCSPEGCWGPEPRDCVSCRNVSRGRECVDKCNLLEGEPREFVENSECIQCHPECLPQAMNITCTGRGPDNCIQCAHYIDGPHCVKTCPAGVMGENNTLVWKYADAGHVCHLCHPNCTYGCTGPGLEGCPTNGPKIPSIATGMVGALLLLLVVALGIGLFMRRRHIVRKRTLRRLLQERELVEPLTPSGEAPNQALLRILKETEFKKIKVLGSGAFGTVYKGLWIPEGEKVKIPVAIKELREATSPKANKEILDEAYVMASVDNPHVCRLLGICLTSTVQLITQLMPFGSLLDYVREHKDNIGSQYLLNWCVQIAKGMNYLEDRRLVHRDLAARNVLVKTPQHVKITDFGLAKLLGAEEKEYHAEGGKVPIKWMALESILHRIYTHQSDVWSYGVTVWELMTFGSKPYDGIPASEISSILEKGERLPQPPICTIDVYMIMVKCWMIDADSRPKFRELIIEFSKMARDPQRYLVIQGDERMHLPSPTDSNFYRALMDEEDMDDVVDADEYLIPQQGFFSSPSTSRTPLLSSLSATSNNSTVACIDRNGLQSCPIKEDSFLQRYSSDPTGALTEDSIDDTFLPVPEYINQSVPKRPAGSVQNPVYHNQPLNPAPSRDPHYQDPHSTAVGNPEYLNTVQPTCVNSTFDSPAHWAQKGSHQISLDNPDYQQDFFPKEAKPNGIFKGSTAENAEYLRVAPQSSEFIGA

[6] = system: Epidermal growth factor receptor (Homo sapiens), P00533 [L858R]; assay: Inhibition of […] EGFR L858R mutant (unknown origin) at 2 nM pretreated with substrate for 10 mins followed by ATP addition measured after 60 mins by mobility shift assay relative to control
NCI-H1975 [7] = assay: Cytotoxicity against human NCI-H1975 cells harboring EGFR L858R/T790M mutant assessed as reduction in cell viability measured after 48 hrs by CCK8 assay; type: functional, cell-based; conditions: NCI-H1975, 48 h
[8] = Selectivity index, ratio of IC50 for cytotoxicity against human A549 cells harboring wild type EGFR to IC50 for cytotoxicity against human HCC827 cells harboring EGFR del E746-A750 mutant assessed as reduction in cell viability measured after 48 hrs by CCK8 assay
HCC827 [9] = assay: Induction of cell cycle arrest in human HCC827 cells harboring EGFR del E746-A750 mutant assessed as accumulation of cells in G2/M phase at 0.5 uM measured after 18 hrs by PI/RNaseA staining based flow cytometry analysis (Rvb= 16.78%); type: functional
[10] = biological target: T1, Epidermal growth factor receptor; assay: Inhibition of wild type EGFR (unknown origin) at 80 nM pretreated with substrate for 10 mins followed by ATP addition measured after 60 mins by mobility shift assay relative to control
HCC827 [11] = assay: Induction of apoptosis in human HCC827 cells harboring EGFR del E746-A750 mutant assessed as late apoptotic cells at 0.5 uM measured after 18 hrs by Annexin V-FITC/PI staining based flow cytometry analysis (Rvb= 1.2%); type: functional
[12] = biological target: T1, Epidermal growth factor receptor; assay: Inhibition of […] EGFR phosphorylation at Tyr1068 residue in human HCC827 cells at 0.1 to 5 uM incubated for 2 hrs by immunoblotting analysis; type: cell-based; conditions: dose 0.1-5 µM
[13] = biological target: Epidermal growth factor receptor (Homo sapiens, UniProt P00533, T790M); assay: Inhibition of […] EGFR T790M mutant (unknown origin) pretreated with substrate for 10 mins followed by ATP addition measured after 60 mins by mobility shift assay
[14] = Cytotoxicity against human HBE cells assessed as reduction in cell viability measured after 48 hrs by CCK8 assay; type: cell-based
[15] = biological target: T1, Epidermal growth factor receptor; assay: Inhibition of […] EGFR phosphorylation at Tyr992 residue in human HCC827 cells at 0.1 to 5 uM incubated for 2 hrs by immunoblotting analysis; type: cell-based; conditions: dose 0.1-5 µM
[16] = biological target: T1, Epidermal growth factor receptor; assay: Inhibition of wild type EGFR (unknown origin) pretreated with substrate for 10 mins followed by ATP addition measured after 60 mins by mobility shift assay
[17] = biological target: T1, Epidermal growth factor receptor; assay: Inhibition of […] EGFR phosphorylation at Tyr1068 residue in human NCI-H1975 cells at 0.1 to 5 uM incubated for 2 hrs by immunoblotting analysis; type: cell-based; conditions: dose 0.1-5 µM
[18] = system: Epidermal growth factor receptor (Homo sapiens), P00533 [L858R,T790M]; assay: Inhibition of […] EGFR L858R/T790M mutant (unknown origin) at 2 nM pretreated with substrate for 10 mins followed by ATP addition measured after 60 mins by mobility shift assay relative to control
Chain of Epidermal growth factor receptor (Homo sapiens), P00533 [L858R,T790M] (P00533 whole entry T790M/L858R, looked up): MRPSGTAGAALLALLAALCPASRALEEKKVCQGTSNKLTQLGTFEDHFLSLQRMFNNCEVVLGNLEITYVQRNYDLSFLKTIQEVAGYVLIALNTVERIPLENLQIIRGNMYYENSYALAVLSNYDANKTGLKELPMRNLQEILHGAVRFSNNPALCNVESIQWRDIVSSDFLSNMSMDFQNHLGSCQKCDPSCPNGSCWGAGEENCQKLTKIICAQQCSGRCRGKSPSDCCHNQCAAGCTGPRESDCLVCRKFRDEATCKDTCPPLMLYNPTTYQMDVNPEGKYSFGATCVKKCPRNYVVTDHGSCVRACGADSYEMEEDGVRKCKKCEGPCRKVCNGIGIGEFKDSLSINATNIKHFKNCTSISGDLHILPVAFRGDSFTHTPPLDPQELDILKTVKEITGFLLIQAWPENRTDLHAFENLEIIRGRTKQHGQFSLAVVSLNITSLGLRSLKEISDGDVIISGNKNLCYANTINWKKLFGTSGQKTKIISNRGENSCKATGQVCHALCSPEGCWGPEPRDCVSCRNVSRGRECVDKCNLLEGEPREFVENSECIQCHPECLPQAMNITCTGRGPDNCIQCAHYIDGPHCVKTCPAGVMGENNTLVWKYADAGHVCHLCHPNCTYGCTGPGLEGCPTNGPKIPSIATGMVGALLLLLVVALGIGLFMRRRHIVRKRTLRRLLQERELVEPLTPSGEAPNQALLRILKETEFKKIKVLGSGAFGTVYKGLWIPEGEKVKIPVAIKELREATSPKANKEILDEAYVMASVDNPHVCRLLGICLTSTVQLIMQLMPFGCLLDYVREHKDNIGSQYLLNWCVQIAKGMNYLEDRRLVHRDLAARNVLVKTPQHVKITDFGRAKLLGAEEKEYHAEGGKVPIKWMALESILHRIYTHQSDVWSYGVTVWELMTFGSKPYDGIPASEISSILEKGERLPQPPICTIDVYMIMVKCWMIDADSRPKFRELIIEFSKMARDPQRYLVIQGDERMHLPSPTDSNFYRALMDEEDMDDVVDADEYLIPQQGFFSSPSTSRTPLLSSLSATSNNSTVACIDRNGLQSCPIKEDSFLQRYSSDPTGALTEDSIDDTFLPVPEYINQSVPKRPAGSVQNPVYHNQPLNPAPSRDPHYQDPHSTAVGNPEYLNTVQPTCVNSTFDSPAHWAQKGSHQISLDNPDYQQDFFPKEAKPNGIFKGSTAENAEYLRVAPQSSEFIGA

HCC827 [19] = assay: Induction of apoptosis in human HCC827 cells harboring EGFR del E746-A750 mutant assessed as dead cells at 0.5 uM measured after 18 hrs by Annexin V-FITC/PI staining based flow cytometry analysis (Rvb= […]); type: functional
[20] = system: Epidermal growth factor receptor (Homo sapiens), P00533 [L858R,T790M,C797S]; assay: Inhibition of […] EGFR L858R/T790M/C797S mutant (unknown origin) at 2 nM pretreated with substrate for 10 mins followed by ATP addition measured after 60 mins by mobility shift assay relative to control
[21] = biological target: Epidermal growth factor receptor (Homo sapiens, UniProt P00533, C797S/L858R/T790M); assay: Inhibition of […] EGFR L858R/T790M/C797S mutant (unknown origin) pretreated with substrate for 10 mins followed by ATP addition measured after 60 mins by mobility shift assay
Chain of Epidermal growth factor receptor (Homo sapiens, UniProt P00533, C797S/L858R/T790M) (P00533 25-1210 T790M/C797S/L858R limits assumed): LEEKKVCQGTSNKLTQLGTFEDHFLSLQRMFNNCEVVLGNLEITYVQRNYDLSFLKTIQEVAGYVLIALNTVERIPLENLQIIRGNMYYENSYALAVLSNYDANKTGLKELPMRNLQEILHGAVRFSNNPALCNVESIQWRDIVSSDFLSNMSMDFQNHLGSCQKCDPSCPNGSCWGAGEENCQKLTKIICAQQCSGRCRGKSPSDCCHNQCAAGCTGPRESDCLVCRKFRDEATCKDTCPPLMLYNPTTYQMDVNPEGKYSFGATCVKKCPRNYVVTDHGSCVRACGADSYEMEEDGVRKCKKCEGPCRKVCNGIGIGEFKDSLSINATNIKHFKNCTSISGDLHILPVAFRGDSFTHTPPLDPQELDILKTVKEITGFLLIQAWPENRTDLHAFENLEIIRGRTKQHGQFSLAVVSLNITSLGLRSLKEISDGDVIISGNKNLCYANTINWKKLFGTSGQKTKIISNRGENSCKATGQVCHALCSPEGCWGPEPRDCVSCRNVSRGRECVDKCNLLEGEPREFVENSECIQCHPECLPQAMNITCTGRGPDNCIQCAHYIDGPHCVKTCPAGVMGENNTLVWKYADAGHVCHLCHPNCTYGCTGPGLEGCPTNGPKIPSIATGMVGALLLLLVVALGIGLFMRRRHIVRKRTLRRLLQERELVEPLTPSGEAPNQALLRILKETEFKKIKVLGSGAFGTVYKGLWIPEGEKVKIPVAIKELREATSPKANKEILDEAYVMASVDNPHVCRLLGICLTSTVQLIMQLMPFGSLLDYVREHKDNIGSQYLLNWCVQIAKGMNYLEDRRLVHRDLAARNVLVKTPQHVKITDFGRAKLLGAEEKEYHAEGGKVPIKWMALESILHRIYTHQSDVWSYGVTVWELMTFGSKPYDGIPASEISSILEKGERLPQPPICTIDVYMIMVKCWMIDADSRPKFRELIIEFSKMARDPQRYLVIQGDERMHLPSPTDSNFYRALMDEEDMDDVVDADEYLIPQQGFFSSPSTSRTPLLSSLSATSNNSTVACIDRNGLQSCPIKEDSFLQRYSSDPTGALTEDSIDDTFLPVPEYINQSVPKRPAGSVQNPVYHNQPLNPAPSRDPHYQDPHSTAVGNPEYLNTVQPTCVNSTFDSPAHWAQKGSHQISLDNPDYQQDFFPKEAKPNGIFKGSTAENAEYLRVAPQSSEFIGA

NCI-H1975 [22] = assay: Induction of cell cycle arrest in human NCI-H1975 cells harboring EGFR L858R/T790M mutant assessed as accumulation of cells in G0/G1 phase at 1 uM measured after 18 hrs by PI/RNaseA staining based flow cytometry analysis (Rvb= 42.69%); type: functional
[23] = biological target: T1, Epidermal growth factor receptor; assay: Inhibition of wild type EGFR phosphorylation at Tyr1068 residue in human HBE cells up to 5 uM incubated for 2 hrs by immunoblotting analysis; type: cell-based; conditions: dose microM <=5, time 2.0 hrs
[24] = Potency index, ratio of avitinib IC50 to test compound IC50 for cytotoxicity against human HBE cells assessed as reduction in cell viability measured after 48 hrs by CCK8 assay; type: cell-based; conditions: read-out: Ratio IC50
[25] = biological target: Epidermal growth factor receptor (Homo sapiens, UniProt P00533, DELE746); assay: Inhibition of […] EGFR Del E746/A750 mutant (unknown origin) pretreated with substrate for 10 mins followed by ATP addition measured after 60 mins by mobility shift assay
[26] = system: Epidermal growth factor receptor (Homo sapiens), P00533 [T790M]; assay: Inhibition of […] EGFR T790M mutant (unknown origin) at 2 nM pretreated with substrate for 10 mins followed by ATP addition measured after 60 mins by mobility shift assay relative to control
[27] = Potency index, ratio of avitinib IC50 to test compound IC50 for cytotoxicity against human BEAS-2B cells assessed as reduction in cell viability measured after 48 hrs by CCK8 assay; type: cell-based; conditions: read-out: Ratio IC50
[28] = biological target: T1, Epidermal growth factor receptor; assay: Inhibition of wild type EGFR phosphorylation at Tyr992 residue in human HBE cells up to 5 uM incubated for 2 hrs by immunoblotting analysis; type: cell-based; conditions: dose microM <=5, time 2.0 hrs
[29] = biological target: Epidermal growth factor receptor (Homo sapiens, UniProt P00533, L858R); assay: Inhibition of […] EGFR L858R mutant (unknown origin) pretreated with substrate for 10 mins followed by ATP addition measured after 60 mins by mobility shift assay

With C=CC(=O)Nc1cccc(Oc2nc(Nc3ccc(N4CCN(C)CC4)c(N)c3)nc3[nH]ccc23)c1 the IC50 [1] was 0.0022 µM, the IC50 [2] was 0.00076 µM and the inhibition [3] was 63%. The inhibition [4] was “Active”, the inhibition [5] was 16% and the inhibition [6] was 40%. The IC50 (NCI-H1975 [7]) was 3.84 µM, the “Selectivity Index” value [8] was 132 and the Activity (HCC827 [9]) was 10.04%. The inhibition [10] was 63%, the Activity (HCC827 [11]) was 12.5% and the inhibition [12] was “Active”. For the same compound, the IC50 [13] was greater than 10 µM, the IC50 [14] was 22.7 µM and the inhibition [15] was “Active”. For the same compound, the IC50 [16] was 0.022 µM, the inhibition [17] was “Active” and the inhibition [18] was 85%. For the same compound, the Activity (HCC827 [19]) was 2.1%, the inhibition [20] was 8% and the IC50 [21] was 0.119 µM. For the same compound, the Activity (NCI-H1975 [22]) was 69.17%, the inhibition [23] was “inactive” and the selectivity ratio at 48 h [24] was 2. The IC50 [25] was 0.002 µM, the inhibition [26] was 96% and the selectivity ratio at 48 h [27] was 2. For the same compound, the inhibition [28] was “inactive” and the IC50 [29] was 0.00021 µM.

C=CC(=O)Nc1cccc(Oc2nc(Nc3ccc(N4CCN(C)CC4)c(F)c3)nc3[nH]ccc23)c1 [ABIVERTINIB] showed an Activity (HCC827 [9]) of 9.53% and an Activity (HCC827 [11]) of 18.3%.

C=CC(=O)Nc1cccc(Oc2nc(Nc3ccc(N4CCN(C)CC4)c([N+](=O)[O-])c3)nc3[nH]ccc23)c1 showed an IC50 [1] of 0.0073 µM, an IC50 [2] of 0.0012 µM and an inhibition [3] of 23%. The inhibition [4] was “Active”, the inhibition [5] was 3.7% and the inhibition [6] was 19%. The IC50 (NCI-H1975 [7]) was 3.1 µM, the Activity (HCC827 [9]) was 8.5% and the inhibition [10] was 37%. The Activity (HCC827 [11]) was 11.4%, the inhibition [12] was “Active” and the IC50 [13] was greater than 10 µM. The IC50 [14] was 7.54 µM, the inhibition [15] was “Active” and the IC50 [16] was 0.111 µM. The inhibition [17] was “Active”, the inhibition [18] was 49% and the Activity (HCC827 [19]) was 1.4%. It also gave an inhibition [20] of 5.8%, an IC50 [21] of 0.829 µM and an Activity (NCI-H1975 [22]) of 72.08%. For the same compound, the inhibition [23] was “inactive”, the IC50 [25] was 0.01 µM and the inhibition [26] was 91%. The inhibition [28] was “inactive” and the IC50 [29] was 0.00039 µM.
